According to the supplement of paper PMC11451515:

Tested on: SEM cells
Experiment: cell viability relative to DMSO control; higher = less cytotoxic
Settings: 48 h
Summary of the method: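 Before seeding, each leukemia line was adapted for at least four passages in each medium. NOMO1 or SEM cells (500 cells/well) and P12-Ichikawa cells (1000 cells/well) went into 1536-well plates at 5 μl, then received library compounds in DMSO by pin dosing across 11 threefold concentrations, 47 μM to 0.79 nM. Readout was CellTiter-Glo One luminescence after 48 h at 37°C, and viability is given as a per-plate percentage of DMSO wells, with cell-free wells as background.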

[1] = HPLM + 10% dialyzed FBS, 0.000781 µM
[2] = HPLM + 10% dialyzed FBS, 0.00234 µM
[3] = HPLM + 10% dialyzed FBS, 0.00702 µM
[4] = HPLM + 10% dialyzed FBS, 0.0211 µM
[5] = HPLM + 10% dialyzed FBS, 0.0632 µM
[6] = HPLM + 10% dialyzed FBS, 0.19 µM
[7] = HPLM + 10% dialyzed FBS, 0.569 µM
[8] = HPLM + 10% dialyzed FBS, 1.71 µM
[9] = HPLM + 10% dialyzed FBS, 5.12 µM
[10] = HPLM + 10% dialyzed FBS, 15.4 µM
[11] = HPLM + 10% dialyzed FBS, 46.1 µM
[12] = RPMI 5 mM glucose + 10% FBS, 0.000781 µM
[13] = RPMI 5 mM glucose + 10% FBS, 0.00234 µM
[14] = RPMI 5 mM glucose + 10% FBS, 0.00702 µM
[15] = RPMI 5 mM glucose + 10% FBS, 0.0211 µM
[16] = RPMI 5 mM glucose + 10% FBS, 0.0632 µM
[17] = RPMI 5 mM glucose + 10% FBS, 0.19 µM
[18] = RPMI 5 mM glucose + 10% FBS, 0.569 µM
[19] = RPMI 5 mM glucose + 10% FBS, 1.71 µM
[20] = RPMI 5 mM glucose + 10% FBS, 5.12 µM
[21] = RPMI 5 mM glucose + 10% FBS, 15.4 µM
[22] = RPMI 5 mM glucose + 10% FBS, 46.1 µM
[23] = RPMI 5 mM glucose + 10% dialyzed FBS, 0.000781 µM
[24] = RPMI 5 mM glucose + 10% dialyzed FBS, 0.00234 µM
[25] = RPMI 5 mM glucose + 10% dialyzed FBS, 0.00702 µM
[26] = RPMI 5 mM glucose + 10% dialyzed FBS, 0.0211 µM
[27] = RPMI 5 mM glucose + 10% dialyzed FBS, 0.0632 µM
[28] = RPMI 5 mM glucose + 10% dialyzed FBS, 0.19 µM
[29] = RPMI 5 mM glucose + 10% dialyzed FBS, 0.569 µM
[30] = RPMI 5 mM glucose + 10% dialyzed FBS, 1.71 µM
[31] = RPMI 5 mM glucose + 10% dialyzed FBS, 5.12 µM
[32] = RPMI 5 mM glucose + 10% dialyzed FBS, 15.4 µM
[33] = RPMI 5 mM glucose + 10% dialyzed FBS, 46.1 µM

SMILES | cell viability [1] [%] | cell viability [2] [%] | cell viability [3] [%] | cell viability [4] [%] | cell viability [5] [%] | cell viability [6] [%] | cell viability [7] [%] | cell viability [8] [%] | cell viability [9] [%] | cell viability [10] [%] | cell viability [11] [%] | cell viability [12] [%] | cell viability [13] [%] | cell viability [14] [%] | cell viability [15] [%] | cell viability [16] [%] | cell viability [17] [%] | cell viability [18] [%] | cell viability [19] [%] | cell viability [20] [%] | cell viability [21] [%] | cell viability [22] [%] | cell viability [23] [%] | cell viability [24] [%] | cell viability [25] [%] | cell viability [26] [%] | cell viability [27] [%] | cell viability [28] [%] | cell viability [29] [%] | cell viability [30] [%] | cell viability [31] [%] | cell viability [32] [%] | cell viability [33] [%]
CNC(=O)CN1CCC(Oc2cc3c(Nc4cccc(Cl)c4F)ncnc3cc2OC)CC1 | 104 | 110 | 110 | 135 | 112 | 122 | 128 | 130 | 121 | 129 | 104 | 117 | 128 | 116 | 118 | 120 | 130 | 130 | 124 | 125 | 122 | 84.9 | 114 | 113 | 120 | 141 | 138 | 152 | 140 | 149 | 125 | 138 | 88.8
CCN(c1ccccc1)c1cc(NC)[n+](C)c(C)n1 | 110 | 107 | 108 | 101 | 107 | 114 | 99.5 | 116 | 104 | 102 | 97.9 | 111 | 97.2 | 96.4 | 105 | 99.5 | 101 | 87.7 | 100 | 105 | 95.3 | 101 | 101 | 105 | 97.4 | 108 | 99.9 | 97.4 | 105 | 99.1 | 107 | 106 | 100
CNC(=O)[C@H](CC/1=C/N=C\2/C=C\C\C=C12)NC(=O)[C@H](CC(C)C)CC(=O)NO | 104 | 103 | 108 | 111 | 120 | 104 | 112 | 118 | 120 | 105 | 101 | 111 | 134 | 122 | 133 | 117 | 118 | 116 | 110 | 132 | 120 | 114 | 95 | 99.2 | 104 | 100 | 113 | 88.9 | 99.7 | 102 | 94.4 | 102 | 90.1
CCOC1=CC=CC=C1N\2C(=O)C3=C(C=CC=C3)\N=C2C(C)N4CCN(CC4)C(=O)COC5=CC=C(Cl)C=C5 (stereo not drawn) | 112 | 111 | 111 | 123 | 114 | 115 | 104 | 26.1 | 9.76 | 5.2 | 3.06 | 124 | 115 | 108 | 101 | 110 | 114 | 28 | 6.16 | 4.12 | 3.03 | 1.64 | 113 | 131 | 119 | 116 | 125 | 136 | 68.6 | 9.93 | 6.21 | 4.51 | 2.93
Cc1ccc2c(c1)c1c(n2CCc2ccc(C)nc2)CCN(C)C1 | 110 | 124 | 120 | 122 | 133 | 131 | 117 | 121 | 135 | 120 | 106 | 116 | 117 | 145 | 147 | 148 | 155 | 140 | 127 | 138 | 134 | 109 | – | – | – | – | – | – | – | – | – | – | –
O.O.CCN1CCN(C(=O)N[C@H](C(=O)N[C@H]2[C@@H]3SC\C(=C(/N3C2=O)C(O)=O)CSC4=NN=N[N]4C)C5=CC=C(O)C=C5)C(=O)C1=O | 81 | 81.3 | 90.4 | 20.6 | 107 | 95.4 | 104 | 101 | 103 | 98.6 | 105 | 99.1 | 75.9 | 99.4 | 15.1 | 95.3 | 104 | 107 | 94.5 | 90.9 | 117 | 98.8 | 88.1 | 80.5 | 97.6 | 17.3 | 91.6 | 106 | 101 | 99.7 | 104 | 93.4 | 103
O=[S+]([O-])(c1cccc2cnccc12)N1CCCNCC1 | 103 | 104 | 121 | 120 | 121 | 127 | 138 | 113 | 117 | 127 | 115 | 123 | 115 | 130 | 121 | 151 | 146 | 133 | 143 | 139 | 148 | 54.9 | 110 | 108 | 123 | 135 | 145 | 136 | 138 | 172 | 145 | 146 | 93.3
C[C@H]1COC/2=C1/C(=O)C(=O)C3=C4CCCC(C)(C)C4=CC=C23 | 116 | 93.8 | 113 | 126 | 126 | 134 | 125 | 106 | 92.1 | 84.1 | 43.1 | 124 | 114 | 135 | 128 | 141 | 130 | 106 | 85.3 | 42.1 | 38.1 | 12.5 | 112 | 107 | 118 | 128 | 140 | 116 | 111 | 104 | 67.4 | 64.5 | 17.3
